Read-outs that look alike come from different tables or passages of the source.
Assays:
human 5-HT2A receptor [1] = biological target: T1, human 5-HT2A receptor (Homo sapiens, UniProt P28223); assay: Competition binding to the human 5-HT2A receptor ([3H]ketanserin, CHO-5-HT2A membranes); settings: for Selectivity 5-HT2A/2C (binding): from Ki values, Table 1; for Ki: human receptor, [3H]ketanserin displacement, no unit in the table, nM, read-out: 5-HT2A Ki (in parentheses) (converted); for inhibition at 10 µM: values marked *
T1 construct: expressed in transfected cells; host or cells: CHO (CHO-5-HT2A cell line)
T1 sequence (P28223 whole entry): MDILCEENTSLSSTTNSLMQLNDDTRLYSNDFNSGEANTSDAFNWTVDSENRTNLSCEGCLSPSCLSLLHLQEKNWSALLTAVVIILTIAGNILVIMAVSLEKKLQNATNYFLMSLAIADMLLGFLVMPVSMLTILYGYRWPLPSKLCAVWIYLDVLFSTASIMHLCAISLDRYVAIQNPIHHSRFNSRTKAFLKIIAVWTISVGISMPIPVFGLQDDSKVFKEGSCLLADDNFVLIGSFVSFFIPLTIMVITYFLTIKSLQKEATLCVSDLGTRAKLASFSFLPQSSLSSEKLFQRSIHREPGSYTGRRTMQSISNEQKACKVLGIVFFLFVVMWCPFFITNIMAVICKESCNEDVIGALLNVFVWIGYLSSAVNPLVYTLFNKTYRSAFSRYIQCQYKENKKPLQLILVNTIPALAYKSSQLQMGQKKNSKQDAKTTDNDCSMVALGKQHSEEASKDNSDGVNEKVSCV

human 5-HT2C receptor [2] = biological target: T2, human 5-HT2C receptor (Homo sapiens, UniProt P28335); assay: Competition binding to the human 5-HT2C receptor ([3H]mesulergine, HeLa-5-HT2C membranes); settings: for Selectivity 5-HT2C/2A (binding, in parentheses): from Ki values, Table 1; for Ki: human receptor, [3H]mesulergine displacement, no unit in the table, nM, read-out: 5-HT2C Ki (in parentheses) (converted); for inhibition at 10 µM: values marked *
T2 construct: expressed in transfected cells; host or cells: HeLa (HeLa-5-HT2C cell line)
T2 sequence (P28335 33-458): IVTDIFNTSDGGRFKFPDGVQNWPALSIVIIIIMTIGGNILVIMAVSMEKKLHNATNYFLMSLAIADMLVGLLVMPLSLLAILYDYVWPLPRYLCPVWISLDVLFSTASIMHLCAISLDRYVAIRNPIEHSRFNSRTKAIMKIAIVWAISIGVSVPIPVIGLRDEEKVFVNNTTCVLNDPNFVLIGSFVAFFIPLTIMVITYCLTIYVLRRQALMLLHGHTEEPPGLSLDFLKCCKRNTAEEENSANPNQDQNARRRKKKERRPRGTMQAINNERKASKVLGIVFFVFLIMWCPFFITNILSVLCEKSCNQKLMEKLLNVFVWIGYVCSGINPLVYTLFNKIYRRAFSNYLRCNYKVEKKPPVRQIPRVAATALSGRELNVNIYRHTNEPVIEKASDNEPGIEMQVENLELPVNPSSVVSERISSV

human 5-HT2A receptor [3] = biological target: T1, human 5-HT2A receptor; assay: Ca2+ mobilization in CHO h5-HT2A cells; format: cell-based; settings: for EC50: Ca2+ mobilization; for Selectivity 5-HT2A/2C (functional): from EC50 values, Table 2; for Emax: relative efficacy, % of response to 5-HT; for times less potent than its 5-methoxytryptamine analog, h5-HT2A functional assay: 3 vs 38, 5 vs 39
human 5-HT2C receptor [4] = biological target: T2, human 5-HT2C receptor; assay: Ca2+ mobilization in HeLa h5-HT2C cells; format: cell-based; settings: for EC50: Ca2+ mobilization, no unit in the table, nM, read-out: 5-HT2C EC50 (in parentheses) (converted); for Emax: HeLa, read-out: 5-HT2C % Emax; for Selectivity 5-HT2C/2A (functional, in parentheses): from EC50 values, Table 2
human 5-HT2B receptor = human 5-HT2B receptor (Homo sapiens, UniProt P41595); assay: Competition binding to the human 5-HT2B receptor ([3H]LSD, CHO-5-HT2B membranes)
Sequence of human 5-HT2B receptor (P41595 whole entry): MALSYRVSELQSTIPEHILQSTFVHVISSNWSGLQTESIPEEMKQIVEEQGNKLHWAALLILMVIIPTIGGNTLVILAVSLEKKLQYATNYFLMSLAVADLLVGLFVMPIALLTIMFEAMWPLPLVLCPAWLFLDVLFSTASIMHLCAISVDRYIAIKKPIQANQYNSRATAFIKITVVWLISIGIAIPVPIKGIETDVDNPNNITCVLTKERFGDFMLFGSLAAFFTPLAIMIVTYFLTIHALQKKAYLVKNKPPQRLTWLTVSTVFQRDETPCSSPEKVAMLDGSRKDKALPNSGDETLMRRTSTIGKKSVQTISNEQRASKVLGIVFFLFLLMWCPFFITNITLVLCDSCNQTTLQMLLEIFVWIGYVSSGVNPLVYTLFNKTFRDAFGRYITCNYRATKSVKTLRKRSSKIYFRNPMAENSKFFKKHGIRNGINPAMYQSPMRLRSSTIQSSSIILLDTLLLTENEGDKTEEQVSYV

[5] = no unit in the table, nM, read-out: 5-HT2A EC50 (in parentheses) (converted)

| Compound | Selectivity 5-HT2A/2C (binding) (human 5-HT2A receptor [1]) | Ki (human 5-HT2A receptor [1]) [nM] | Selectivity 5-HT2C/2A (binding, in parentheses) (human 5-HT2C receptor [2]) | Ki (human 5-HT2C receptor [2]) [nM] | EC50 (human 5-HT2A receptor [3]; [5]) [nM] | Selectivity 5-HT2A/2C (functional) (human 5-HT2A receptor [3]) | Emax (human 5-HT2A receptor [3]) [%] | EC50 (human 5-HT2C receptor [4]) [nM] | Emax (human 5-HT2C receptor [4]) [%] | Selectivity 5-HT2C/2A (functional, in parentheses) (human 5-HT2C receptor [4]) | Ki (human 5-HT2B receptor) [nM] | times less potent than its 5-methoxytryptamine analog, h5-HT2A functional assay (human 5-HT2A receptor [3]) | EC50 (human 5-HT2A receptor [3]; pEC50 ± SEM, read-out: 5-HT2A pEC50 (converted)) [nM] | inhibition at 10 µM (human 5-HT2A receptor [1]) [%] | inhibition at 10 µM (human 5-HT2C receptor [2]) [%] |
| --- | --- | --- | --- | --- | --- | --- | --- | --- | --- | --- | --- | --- | --- | --- | --- |
| c1ccc(CNCCc2c[nH]c3ccccc23)cc1 [Compound 1, N-Benzyl-[2-(1H-indol-3-yl)ethyl]amine] | 0.75 | 245 | 1.33 | 186 | 162 | 0.31 | 61.6 ± 5.17 | 50.1 | 121 ± 6.58 | 3.24 | 100 | – | – | – | – |
| Oc1ccccc1CNCCc1c[nH]c2ccccc12 [Compound 2, N-(2-Hydroxybenzyl)-[2-(1H-indol-3-yl)ethyl]amine] | 0.73 | 115 | 1.37 | 85.1 | 200 | 0.17 | 94.1 ± 4.59 | 33.9 | 85.8 ± 2.83 | 5.89 | 67.6 | – | – | – | – |
| COc1ccccc1CNCCc1c[nH]c2ccccc12 [Compound 3, N-(2-Methoxybenzyl)-[2-(1H-indol-3-yl)ethyl]amine] | 2.56 | 89.1 | 0.39 | 224 | 1550 | 0.023 | 63 ± 1.95 | 35.5 | 94.2 ± 3.75 | 43.7 | 46.8 | several hundred times less potent | 1550 | – | – |
| Cc1ccccc1CNCCc1c[nH]c2ccccc12 [Compound 4, N-(2-Methylbenzyl)-[2-(1H-indol-3-yl)ethyl]amine] | – | – | – | 661 | 2000 | 0.069 | 44.4 ± 2.79 | 138 | 107 ± 2.9 | 14.5 | 339 | – | – | 48 ± 1 | – |
| Clc1ccccc1CNCCc1c[nH]c2ccccc12 [Compound 5, N-(2-Chlorobenzyl)-[2-(1H-indol-3-yl)ethyl]amine] | 2.04 | 12 | 0.49 | 24.6 | 468 | 0.42 | 25.5 ± 1.16 | 195 | 87.1 ± 4.96 | 2.40 | 23.4 | ~40 times | – | – | – |
| Brc1ccccc1CNCCc1c[nH]c2ccccc12 [Compound 6, N-(2-Bromobenzyl)-[2-(1H-indol-3-yl)ethyl]amine] | 1.74 | 195 | 0.57 | 339 | 2240 | 0.10 | 29.3 ± 5.93 | 234 | 109 ± 5.2 | 9.55 | 74.1 | – | – | – | – |
| Oc1cccc(CNCCc2c[nH]c3ccccc23)c1 [Compound 7, N-(3-Hydroxybenzyl)-[2-(1H-indol-3-yl)ethyl]amine] | 0.36 | 75.9 | 2.8 | 25.7 | 56.2 | 0.12 | 52.8 ± 4.63 | 6.76 | 96.3 ± 4.02 | 8.32 | 37.1 | – | – | – | – |
| Cc1cccc(CNCCc2c[nH]c3ccccc23)c1 [Compound 8, N-(3-Methylbenzyl)-[2-(1H-indol-3-yl)ethyl]amine] | 5.10 | 14.4 | 0.20 | 74.1 | 61.7 | 0.48 | 33 ± 2.11 | 29.5 | 82.6 ± 2.11 | 2.09 | 17 | – | – | – | – |
| Fc1cccc(CNCCc2c[nH]c3ccccc23)c1 [Compound 9, N-(3-Fluorobenzyl)-[2-(1H-indol-3-yl)ethyl]amine] | 0.84 | 257 | 1.19 | 214 | 389 | 0.29 | 33.8 ± 4.01 | 112 | 112 ± 4.84 | 3.47 | 126 | – | – | – | – |
| Clc1cccc(CNCCc2c[nH]c3ccccc23)c1 [Compound 10, N-(3-Chlorobenzyl)-[2-(1H-indol-3-yl)ethyl]amine] | 2.17 | 44.7 | 0.46 | 97.7 | 120 | 2.34 | 57.9 ± 4.15 | 282 | 117 ± 4.82 | 0.43 | 34.7 | – | – | – | – |
| Brc1cccc(CNCCc2c[nH]c3ccccc23)c1 [Compound 11, N-(3-Bromobenzyl)-[2-(1H-indol-3-yl)ethyl]amine] | – | 8.13 | – | 75.9 | 58.9 | 0.93 | 32.6 ± 1.64 | 55 | 107 ± 2.78 | 1.07 | 21.9 | – | – | – | – |
| Oc1ccc(CNCCc2c[nH]c3ccccc23)cc1 [Compound 12, N-(4-Hydroxybenzyl)-[2-(1H-indol-3-yl)ethyl]amine] | 1.09 | 912 | 0.92 | 1000 | – | – | – | 145 | 99.7 ± 2.81 | – | 490 | – | – | – | – |
| COc1ccc(CNCCc2c[nH]c3ccccc23)cc1 [Compound 13, N-(4-Methoxybenzyl)-[2-(1H-indol-3-yl)ethyl]amine] | – | 457 | – | 355 | 45.7 | – | 108 ± 2.78 | 8.32 | 91.4 ± 2.03 | – | – | – | – | – | – |
| Cc1ccc(CNCCc2c[nH]c3ccccc23)cc1 [Compound 14, N-(4-Methylbenzyl)-[2-(1H-indol-3-yl)ethyl]amine] | 0.81 | 417 | 1.23 | 331 | – | – | – | 1200 | 100 ± 5.36 | – | 74.1 | – | – | – | – |
| O=[N+]([O-])c1ccc(CNCCc2c[nH]c3ccccc23)cc1 [Compound 18, N-(4-Nitrobenzyl)-[2-(1H-indol-3-yl)ethyl]amine] | 0.54 | 2630 | 1.85 | 1410 | – | – | – | 525 | 92 ± 8.69 | – | 200 | – | – | – | – |
| COc1cccc(CNCCc2c[nH]c3ccccc23)c1OC [Compound 20, N-(2,3-Dimethoxybenzyl)-[2-(1H-indol-3-yl)ethyl]amine] | 0.73 | 1510 | 1.37 | 1120 | – | – | – | 3630 | 117 ± 9.18 | – | 195 | – | – | – | – |
| Oc1ccc(Br)cc1CNCCc1c[nH]c2ccccc12 [Compound 26, N-(5-Bromo-2-hydroxybenzyl)-[2-(1H-indol-3-yl)ethyl]amine] | 2.39 | 309 | 0.42 | 724 | – | – | – | 708 | 108 ± 2.88 | – | – | – | – | – | – |
| O=[N+]([O-])c1ccc(O)c(CNCCc2c[nH]c3ccccc23)c1 [Compound 30, N-(5-Nitro-2-hydroxybenzyl)-[2-(1H-indol-3-yl)ethyl]amine] | – | – | – | – | – | – | – | – | – | – | 891 | – | – | 8 ± 4 | 31 ± 4 |
| COc1ccc(CNCCc2c[nH]c3ccccc23)c(OC)c1 [Compound 32, N-(2,4-Dimethoxybenzyl)-[2-(1H-indol-3-yl)ethyl]amine] | 0.41 | 661 | 2.44 | 269 | – | – | – | 240 | 117 ± 4.59 | – | 234 | – | – | – | – |
| Oc1c(Br)cc(Br)cc1CNCCc1c[nH]c2ccccc12 [Compound 35, N-(3,5-Dibromo-2-hydroxybenzyl)-[2-(1H-indol-3-yl)ethyl]amine] | – | – | – | – | – | – | – | – | – | – | 6030 | – | – | 12 ± 4 | 26 ± 4 |
| NCCc1c[nH]c2ccccc12 [Tryptamine] | – | – | – | 95.5 | – | – | 97.6 ± 2.34 | 1.17 | 108 ± 3.43 | – | 110 | – | – | – | – |

Source: PMC6328172, “5-HT2 receptor binding, functional activity and selectivity in N-benzyltryptamines” (PLoS ONE, 2019)
